Results on five compounds are retold here after PMC6539903 (Molecules, 2019).

In one data set the target is T1, COX-1 (Homo sapiens, UniProt P23219).
T1 construct: purchased Cayman Chemical 701170
The data set can be described thus: COX-1 inhibition assay (COX-1 ELISA kit). The format is biochemical. The note with it: mean of four determinations; read-out: IC50 ± SD COX-1. The procedure, abridged:
(§1)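 Reaction stopped with 1 M HCl, then saturated stannous chloride (50 mg/mL) added and incubated 5 min at room temperature to reduce PGH2 to PGF2 for ELISA quantification.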

The target in a further data set is T2, COX-2 (Homo sapiens, UniProt P35354).
T2 construct: purchased Cayman Chemical 701180
T2 sequence (P35354 18-604): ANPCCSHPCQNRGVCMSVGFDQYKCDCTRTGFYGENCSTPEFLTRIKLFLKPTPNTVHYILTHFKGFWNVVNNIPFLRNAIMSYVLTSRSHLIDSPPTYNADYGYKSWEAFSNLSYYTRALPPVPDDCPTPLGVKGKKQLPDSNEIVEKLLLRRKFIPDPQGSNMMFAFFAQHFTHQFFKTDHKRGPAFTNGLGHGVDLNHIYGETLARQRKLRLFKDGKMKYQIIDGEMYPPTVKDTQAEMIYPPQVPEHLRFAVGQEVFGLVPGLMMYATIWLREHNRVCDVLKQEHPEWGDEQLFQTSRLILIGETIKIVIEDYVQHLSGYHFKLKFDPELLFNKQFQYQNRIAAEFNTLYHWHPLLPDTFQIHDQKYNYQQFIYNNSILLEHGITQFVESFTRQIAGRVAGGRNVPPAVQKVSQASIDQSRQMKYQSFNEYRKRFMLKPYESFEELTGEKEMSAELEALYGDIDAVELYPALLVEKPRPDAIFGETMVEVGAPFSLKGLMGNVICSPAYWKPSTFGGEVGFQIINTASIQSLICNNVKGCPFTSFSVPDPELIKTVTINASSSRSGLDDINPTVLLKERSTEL
The data set can be described thus: COX-2 inhibition assay (COX-2 ELISA kit). It is filed as biochemical. Particulars: for Selectivity Index (SI) (COX-1 IC50/COX-2 IC50): in vitro COX-2 selectivity index; for IC50: mean of four determinations, read-out: IC50 ± SD COX-2. The essentials: as §1
On the technique in general: An ELISA detects its analyte on a solid surface through an enzyme-linked reagent.

The subject of data set [1] is SW620 cells. Nature of the data set: MTT antiproliferation assay, SW620. The format is cell-based. The note with it: Homo sapiens, SW-620, 48 h, n = 3, read-out: IC50 ± SD SW620. The essentials:
(§2)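 Cells treated with compound in triplicate wells, then MTT (5 mg/mL in PBS) added for 4 h and formazan dissolved in DMSO; absorbance read at 570 nm with 630 nm reference. IC50 derived relative to DMSO-treated controls; each assay run three times.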
On the technique in general: Formazan colour is commonly taken as a measure of viable cells.

The next data set deals with MCF-7. Nature of the data set: MTT antiproliferation assay, MCF-7. The format is cell-based. Particulars: Homo sapiens, MCF7, 48 h, n = 3, read-out: IC50 ± SD MCF-7. The essentials:
as §2

The subject of a further data set is HeLa. The data set can be described thus: MTT antiproliferation assay, HeLa. The format is cell-based. Particulars: Homo sapiens, 48 h, n = 3, read-out: IC50 ± SD HeLa. The essentials: as §2
The test system of another data set is A549. The data set can be described thus: MTT antiproliferation assay, A549. The note with it: Homo sapiens, 48 h, n = 3, read-out: IC50 ± SD A549. The format is cell-based. The essentials: as §2
A further data set concerns HepG2. The data set can be described thus: MTT antiproliferation assay, HepG2. Particulars: Homo sapiens, 48 h, n = 3, read-out: IC50 ± SD HepG2. The format is cell-based. The essentials:
as §2

The nature of data set [2]: MTT cytotoxicity assay, non-cancer colon cells. The format is cell-based. The note with it: human, NCM460 colonic epithelial cells (non-cancer cell line), n = 3, non-cancer cell line, read-out: CC50 ± SD NUM460. The essentials:
as §2

In data set [3] the test system is SW620 cells. The data set can be described thus: Cell apoptosis assay (Annexin V-FITC/PI flow cytometry). The format is cell-based, human. Particulars: 24 h (0 μM: 7.9%). The procedure: To confirm that antiproliferation activities of SW620 were associated with apoptosis, SW620 cell apoptosis induced by compound 4b was determined using flow cytometry with Annexin V-FITC/PI Apoptosis Detection Kit. […] The percentages of cell apoptosis 7.9%, 19.9%, 45.9%, and 65.0% were responding to the concentration of compound 4b 0 μM, 2.0 μM, 4.0 μM, and 8.0 μM, respectively.
SW620 cells were seeded in the 6-well plate ([…]) and treated with compound 4b to induce apoptosis at final concentrations of 0, 2, 4, and 8 μM for 24 h. After incubation, the cells were extracted with trypsin and washed with cold PBS twice. Cells are then bound to 500 μL buffer and then annexin-v/FITC (5 μL) and PI (5 μL) were added to the medium for another 10 min to incubate darkness. Staining cells were analyzed by flow cytometry (Becton Dickinson, Franklin, NJ, USA). Flowjo 7.6.1 software (Emerald Biotech Co. Ltd., Hangzhou, China) was used for statistical analysis.
Background: Flow cytometry measures light scatter and fluorescence of single cells or particles in a stream.

Data set [4] concerns SW620 xenografts tumor model. The data set can be described thus: SW620 xenograft model in vivo. Particulars: nude mice, 20 mg/kg intraperitoneal every 2 days, start about 100 mm^3. As to the method: In view of potent cox-2 selective inhibitory activity and anti-colon cancer proliferation activity in vitro, compound 4b was further evaluated for anti-colon cancer activity in vivo. SW620 cells (5 × 10^6) were subcutaneously injected into the rightwing nude mice to establish a xenograft model. […]. Intraperitoneal administration was performed every 2 days and tumor volume changes were recorded for 12 consecutive days. […]. After 12 days of treatment, the tumor volumes of the two treatment groups were 43.71 mm^3 and 51.69 mm^3, respectively. Finally, the tumors of each group were removed and weighed to calculate the ratio of tumor weight to body weight. […] In contrast, body weight increased slightly in the vehicle group at the later stage of treatment (Figure 5C). […] This series of representative compounds 4b, as a selective COX-2 inhibitor for the targeted therapy of colon cancer, had prominent research prospect.
Nude mice aged 6-8 weeks were purchased from the model animal research center of nanjing university and bred in a specific non-pathogenic environment. A xenograft model was established by subcutaneous injection of SW620 cells […] DMEM into the right wing (18–22 g) of nude mice. […]. Vehicle treatment groups were treated with polyethylene glycol (containing 1% DMSO). […] After administration, weighed every two days and measured tumor volume with a vernier caliper. […]

T1 sequence (P23219 24-599): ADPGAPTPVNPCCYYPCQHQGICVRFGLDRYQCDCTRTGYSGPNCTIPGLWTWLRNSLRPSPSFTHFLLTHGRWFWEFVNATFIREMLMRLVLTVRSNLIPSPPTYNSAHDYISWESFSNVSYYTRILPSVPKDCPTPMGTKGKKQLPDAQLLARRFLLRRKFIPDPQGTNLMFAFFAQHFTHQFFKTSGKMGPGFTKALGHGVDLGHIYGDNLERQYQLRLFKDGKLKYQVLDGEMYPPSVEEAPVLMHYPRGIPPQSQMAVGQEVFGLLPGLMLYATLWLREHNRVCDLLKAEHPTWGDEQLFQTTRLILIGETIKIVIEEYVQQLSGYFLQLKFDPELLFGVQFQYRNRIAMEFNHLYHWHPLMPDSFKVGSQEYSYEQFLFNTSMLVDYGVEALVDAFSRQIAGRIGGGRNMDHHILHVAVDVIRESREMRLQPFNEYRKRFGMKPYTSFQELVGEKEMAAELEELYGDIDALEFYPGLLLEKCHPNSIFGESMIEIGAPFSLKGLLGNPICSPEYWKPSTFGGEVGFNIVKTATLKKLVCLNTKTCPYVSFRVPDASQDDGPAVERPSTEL

Usually IC50 stands for the concentration that inhibits the measured activity by half. A word on the CC50: it is the concentration that lowers cell viability or growth by half. As usually defined, the melting point is the temperature, or range, at which the solid turns liquid. `Cc1ccc(C2=NN(c3ccc(S(N)(=O)=O)cc3)C(c3ccc4c(c3)OCO4)C2)cc1` (stereo not drawn) [Compound 4b, 4-(5-(Benzo[d][1,3]dioxol-5-yl)-3-(p-tolyl)-4,5-dihydro-1H-pyrazol-1-yl)benzenesulfonamide] displayed a melting point of 200 to 201 °C. Further, the IC50 at COX-1 was determined as 48.06 ± 0.35 µM. Besides, at COX-2, the “Selectivity Index (SI) (COX-1 IC50/COX-2 IC50)” value is reported as 137.3 and the IC50 is 0.35 ± 0.02 µM. Further, in the data set with SW620 cells [1], the IC50 stood at 0.86 ± 0.02 µM. Also, the IC50 with MCF-7 amounted to 2.99 ± 0.13 µM. Further, the IC50 in the data set with HeLa came to 2.98 ± 0.17 µM. Further, the IC50 in the data set on A549 was found to be 1.94 ± 0.06 µM. Moreover, the IC50 in the data set with HepG2 was 2.96 ± 0.14 µM. For the same compound, the CC50 at 48 h in data set [2] came out at 134 ± 7.85 µM. In addition, in the data set on SW620 cells [3] (SW620, 2.0 μM), the “percentage of cell apoptosis” value was found to be 19.9%. Moreover, the “percentage of cell apoptosis” value with SW620 cells [3] (SW620, 4.0 μM) is recorded as 45.9%. The “percentage of cell apoptosis” value in the data set on SW620 cells [3] (SW620, 8.0 μM) came out at 65.0%. Also, the “tumor volume after 12 days of treatment” value in data set [4] amounted to 43.71 mm^3.
On to `Cc1ccc(-c2cc(C(F)(F)F)nn2-c2ccc(S(N)(=O)=O)cc2)cc1` [Celecoxib, reference compound], for which the “tumor volume after 12 days of treatment” value in data set [4] came out at 51.69 mm^3.
On to `Cc1ccc(C2=NN(c3ccc(S(N)(=O)=O)cc3)C(c3ccc4c(c3)OCO4)C2)c(C)c1` (stereo not drawn) [Compound 4i, 4-(5-(Benzo[d][1,3]dioxol-5-yl)-3-(2,4-dimethylphenyl)-4,5-dihydro-1H-pyrazol-1-yl)benzenesulfonamide], for which the melting point lay in the range of 180 to 182 °C. Moreover, the IC50 at COX-1 is above 60 µM. On COX-2, the “Selectivity Index (SI) (COX-1 IC50/COX-2 IC50)” value is given as above 30.30 and the IC50 stood at 1.98 ± 0.15 µM. Also, the IC50 in the data set on SW620 cells [1] amounted to 4.96 ± 0.38 µM. Besides, the IC50 in the data set with MCF-7 was 8.14 ± 0.69 µM. The IC50 in the data set with HeLa came to 9.16 ± 0.37 µM. Further, the IC50 with A549 is 6.71 ± 0.57 µM. For the same compound, the IC50 in the data set on HepG2 is 13.3 ± 0.89 µM. Moreover, the CC50 at 48 h in data set [2] amounted to 155 ± 12.7 µM.
As to `NS(=O)(=O)c1ccc(N2N=C(c3cccc(F)c3)CC2c2ccc3c(c2)OCO3)cc1` (stereo not drawn) [Compound 4h, 4-(5-(Benzo[d][1,3]dioxol-5-yl)-3-(3-fluorophenyl)-4,5-dihydro-1H-pyrazol-1-yl)benzenesulfonamide], the melting point is 192 to 193 °C. Moreover, the IC50 at COX-1 was 52.91 ± 0.39 µM. For the same compound, on COX-2, the “Selectivity Index (SI) (COX-1 IC50/COX-2 IC50)” value worked out at 41.33 and the IC50 is 1.28 ± 0.07 µM. In addition, in the data set with SW620 cells [1], the IC50 was determined as 3.24 ± 0.18 µM. Also, the concentration for half-maximal inhibition (IC50) in the data set on MCF-7 amounted to 5.56 ± 0.38 µM. In addition, the concentration for half-maximal inhibition (IC50) in the data set on HeLa worked out at 6.07 ± 0.41 µM. The IC50 in the data set on A549 came out at 3.26 ± 0.29 µM. Further, in the data set with HepG2, the IC50 turned out to be 7.14 ± 0.66 µM. In data set [2], the CC50 at 48 h is 82.8 ± 7.59 µM.
`NS(=O)(=O)c1ccc(N2N=C(c3ccccc3)CC2c2ccc3c(c2)OCO3)cc1` (stereo not drawn) [Compound 4a, 4-(5-(Benzo[d][1,3]dioxol-5-yl)-3-phenyl-4,5-dihydro-1H-pyrazol-1-yl)benzenesulfonamide]: the melting point is 212 to 214 °C. For the same compound, the IC50 at COX-1 is above 60 µM. At COX-2, the “Selectivity Index (SI) (COX-1 IC50/COX-2 IC50)” value was above 44.44 and the IC50 stood at 1.35 ± 0.08 µM. Also, the IC50 in the data set with SW620 cells [1] came out at 3.38 ± 0.27 µM. Also, the IC50 with MCF-7 was 5.77 ± 0.39 µM. Moreover, in the data set with HeLa, the IC50 worked out at 6.32 ± 0.55 µM. Besides, the IC50 with A549 worked out at 3.54 ± 0.19 µM. Further, the IC50 with HepG2 turned out to be 7.64 ± 0.57 µM. Moreover, in [2], the CC50 at 48 h is 88.6 ± 3.96 µM.
